# Test results: patent US20220168261A1, “COMPOUNDS AND METHODS FOR MANAGING CANCER THROUGH IMMUNE SYSTEM” (AKAMARA THERAPEUTICS, INC., priority 2019, published 2022)
# Assays:
# 4T1 cells [1] = test: CMTR2 levels in 4T1 cells upon treatment; assay type: cell-based
# Source text: (§1) Cap-specific mRNA (nucleoside-2′-O-)-methyltransferase 2 (CMTR2) is an enzyme that methylates at the 2′-O position of the second transcribed nucleotide of mRNAs.
# Alternatively, the unmethylated mRNA could also be recognized by toll-like receptors (TLR) like TLR3. Both of these would trigger many interferon regulatory factors (IRFs) leading to a type-I interferon antiviral response. The interferons can induce interferon stimulated genes (ISGs) such as interferon induced tetratricopeptide repeat protein 1 (IFIT1), which binds to unmethylated mRNA with high affinity. Furthermore, the immune system would be activated by the interferons. Additionally, the unmethylated mRNA could be secreted out from the tumor cells resulting in B-cell activation.
# 4T1 tumors = test: 4T1 breast tumors in mice in vivo; set-up: species or system BALB/c mice
# CMTR2 [2] = molecular target: T1, CMTR2 (Mus musculus, UniProt Q8BWQ4); test: Binding of CMTR2 to Compound 1 by ELISA
# T1 construct: endogenous in cells; host or cells: 4T1 cells (lysate)
# T1 sequence (Q8BWQ4 1-767): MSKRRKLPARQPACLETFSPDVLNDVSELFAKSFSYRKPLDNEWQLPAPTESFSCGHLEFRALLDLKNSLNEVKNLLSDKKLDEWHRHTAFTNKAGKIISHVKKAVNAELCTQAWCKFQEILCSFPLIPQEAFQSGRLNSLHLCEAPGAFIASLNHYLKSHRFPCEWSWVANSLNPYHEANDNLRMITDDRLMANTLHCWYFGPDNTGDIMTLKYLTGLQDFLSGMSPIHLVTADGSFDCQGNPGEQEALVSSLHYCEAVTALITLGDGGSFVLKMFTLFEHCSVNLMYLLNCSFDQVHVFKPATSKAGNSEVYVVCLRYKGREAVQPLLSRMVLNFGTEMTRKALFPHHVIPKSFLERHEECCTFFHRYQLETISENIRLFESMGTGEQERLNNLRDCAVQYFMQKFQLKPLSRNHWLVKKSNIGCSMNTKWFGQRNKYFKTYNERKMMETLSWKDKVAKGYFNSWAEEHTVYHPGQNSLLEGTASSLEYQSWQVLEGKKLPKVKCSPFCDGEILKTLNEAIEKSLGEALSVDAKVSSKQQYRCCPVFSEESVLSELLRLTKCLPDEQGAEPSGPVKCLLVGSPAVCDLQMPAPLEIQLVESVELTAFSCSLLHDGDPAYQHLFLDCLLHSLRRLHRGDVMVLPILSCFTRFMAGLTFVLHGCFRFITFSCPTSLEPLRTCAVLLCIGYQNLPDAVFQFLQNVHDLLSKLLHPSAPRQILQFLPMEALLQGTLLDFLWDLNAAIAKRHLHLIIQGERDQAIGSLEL
# Source text: as §1
# [3] = Single dose toxicity study in rats; assay type: in vivo; conditions: for ALP (Hepatic), Mean / ALT (Hepatic), Mean / AST (Hepatic), Mean / Creatinine (Renal), Mean / Hemoglobin (Anemia), Mean / Neutrophil (Neutropenia), Mean / Platelet (Thrombocytopenia), Mean: rat, in vivo
# Experimental: Further, Compound 1 was also tested for safety end point evaluation in rats. […] Doses of 44 mg/kg, 88 mg/kg and 176 mg/kg were tested and 176 mg/kg was LTD.
# 4T1 cells [4] = test: Intracellular distribution of platinum and intact drug in 4T1 cells (AAS, RPHPLC); assay type: cell-based; conditions: 50 μM
# Experimental: The remaining insoluble proteins were resuspended in RIPA lysis buffer. The leftover genomic DNA (gDNA) pellet was treated with methanol to dissociate any non-covalently bound platinum from the gDNA. All the fractions were assayed by atomic absorption spectroscopy (AAS) to determine their Pt content. […] Data was generated from three independent biological experiments and error represents standard error of mean.
# Lewis lung carcinoma = test: Immunocompetent Lewis lung carcinoma model; assay type: in vivo, mice
# Source text: This model was therefore used to test whether the activation of both T cells, using a PD1 inhibitor, and B cells, using Compound 1, results in synergy. In this experiment, four groups of mice models for immunocompetent Lewis lung carcinoma were utilized. The mice were, independently, intravenously treated with control, Compound 1, anti-PD-1, or Compound 1+ anti-PD-1 and tumor growth monitored for at least 28 days post-tumor induction. The following table describes the treatments utilized in the experiment.
# CMTR2 [5] = molecular target: T1, CMTR2; test: Proteomics target identification (anti-cholesterol IP and chemical pulldown) from 4T1 lysate; assay type: binding
# Experimental: as §1
# In this example, two different proteomics approach were used to identify the target of Compound 1: (i) an anti-drug antibody (binds to cholesterol in Compound 1) and (ii) Compound A-1, where both (i) and (ii) were used to precipitate targets from 4T1 lysates. The 4T1 cell lysate was treated with pegylated Compound 1 for 20 hours. The 4T1 cells lysate was, independently, combined with the proteins of Table A or treated with Compound 1 and then combined with the proteins of Table A. Precipitated proteins were digested into peptides and identified using LC-MS/MS. Table A provides a summary of the proteins identified from both approaches that were enriched in Compound 1 samples above the background.
# [6] = Pharmacokinetics after single i.v. bolus in tumor bearing mice; assay type: in vivo, female Balb/c mice; conditions: plasma, LC-MS/MS, noncompartmental analysis
# Experimental: The pharmacokinetic (PK) profile of Compound 1 was evaluated following single intravenous (i.v bolus) dosing in tumor bearing female Balb/c mice. Tumor and plasma samples were collected at various time points, sparse sampling (n=3). Plasma concentrations were determined using LC-MS/MS and later subjected to Phoenix WinNonlin Noncompartmental analysis and PK parameters were estimated.
# 4T1 cells [7] = test: Interferon pathway / anti-viral response in 4T1 cells (RT-q-PCR, iBlot); assay type: cell-based
# Experimental: RT-q-PCR was performed with RNA extracted from 4T1 cells treated with 30 μM of Compound 1 or vehicle for 24 h. […] The result is representative of n=3.
# See, FIG. 16. The unmethylated mRNA generated due to inhibition of CMTR2 activity leads to recognition by sensors like MDA5 and TLR3 in conjunction with adapters like TRIF.
# [8] = tumors regressed by 20% on day three
compound,measurement,setting,value
CC(C)CCC[C@@H](C)[C@H]1CCC2C3CC=C4C[C@@H](OCCN(CC(=O)[O-])CC(=O)[O][Pt+]5[NH][C@@H]6CCCC[C@H]6[NH]5)CC[C@]4(C)C3CC[C@@]21C (stereo partly drawn) [Compound 1],CMTR2 level in 4T1 cell lysate,4T1 cells [1],dose-dependent upregulation of CMTR2
same,4T1 tumor ablation in mice lacking B cells,"4T1 tumors; 88 mg/kg, 2 cycles, T and B-cell knockout (SCID) mice, FIG. 26",4T1 tumor ablation does not happen in mice lacking B cells
same,Tumor growth following re-implantation of cancer cells,"4T1 tumors; 88 mg/kg, 2 cycles, animals with previous tumor regression, FIG. 27",No tumor growth occurs
same,Tumor growth inhibition with increasing doses,"4T1 tumors; 4T1 breast cancer-bearing mice, FIG. 10",clear dose-dependent effect
same,Infiltrating immune cells in tumor sections (immunohistology),4T1 tumors; 50% regressed tumors,"increased IGKC levels, and increased infiltration of memory B cells (CD20+) and plasma B cells (CD138)"
same,B cell biomarker transcripts IGKC and CD21 in tumor (RTPCR),4T1 tumors; FIGS. 8B to 8E,increase in IGKC and CD21
same,CD8a in tumor (RTPCR),4T1 tumors; FIGS. 8B to 8E,increase in CD8a cells
same,4T1 tumor growth,"4T1 tumors; administered on days 1, 2, 6, and 7, female Balb/c mice",ablated 4T1 tumors
same,Body weight,"4T1 tumors; administered on days 1, 2, 6, and 7, up to 29 days post-implantation",without any loss in body weight
same,Tumor size of established 4T1 tumors,"4T1 tumors; cumulative dose of 176 mg/kg per cycle, 2 cycles, immunocompetent syngeneic BALB/c mice",tumor regression is observed
same,% B-cell in tumor by FACS,4T1 tumors; day 3,infiltrating the tumor
same,IFIT1 levels in plasma (dot-blot),"4T1 tumors; days 3, 4, 5, and 8",elevated on days 3 to 8
same,INF-α levels in plasma (dot-blot),"4T1 tumors; days 3, 4, 5, and 8",elevated in plasma
same,B cell phenotype by FACS in draining lymph node and spleen,"4T1 tumors; post-regression, spleen following rechallenge",increase in B cells with a reduction in Bregs
same,Tumor growth post rechallenge with cancer cells (immune memory),"4T1 tumors; reinjected with 4T1 cells twenty-five days post-regression, no additional treatment",absence of any tumor growth
same,IFN gene expression in 4T1 tumors,4T1 tumors; [8],robust increase in expression
same,IRF3 and IRF7 gene expression in 4T1 tumors,4T1 tumors; [8],increased expression is observed for IRF3 and IRF7
same,Binding of CMTR2 by ELISA,CMTR2 [2],confirmed by ELISA
same,Tolerability of the remaining doses,"[3]; 44 mg/kg and 88 mg/kg, single intravenous infusion (30 min)",well tolerated without any significant clinical signs
same,"ALP (Hepatic), Mean",[3]; 44 mg/kg,107.60 U/L
same,"ALT (Hepatic), Mean",[3]; 44 mg/kg,30.00 U/L
same,"AST (Hepatic), Mean",[3]; 44 mg/kg,110.60 U/L
same,"Creatinine (Renal), Mean",[3]; 44 mg/kg,0.49 mg/dL
same,"Hemoglobin (Anemia), Mean",[3]; 44 mg/kg,15.84 g/dL
same,"Neutrophil (Neutropenia), Mean",[3]; 44 mg/kg,0.72 × 10^3 cells/μL
same,"Platelet (Thrombocytopenia), Mean",[3]; 44 mg/kg,1201.2 × 10^3 cells/μL
same,"ALP (Hepatic), Mean",[3]; 88 mg/kg,133.00 U/L
same,"ALT (Hepatic), Mean",[3]; 88 mg/kg,25.60 U/L
same,"AST (Hepatic), Mean",[3]; 88 mg/kg,106.00 U/L
same,"Creatinine (Renal), Mean",[3]; 88 mg/kg,0.49 mg/dL
same,"Hemoglobin (Anemia), Mean",[3]; 88 mg/kg,14.92 g/dL
same,"Neutrophil (Neutropenia), Mean",[3]; 88 mg/kg,0.80 × 10^3 cells/μL
same,"Platelet (Thrombocytopenia), Mean",[3]; 88 mg/kg,1376.2 × 10^3 cells/μL
same,"ALP (Hepatic), Mean",[3]; 176 mg/kg,209.5 U/L
same,"ALT (Hepatic), Mean",[3]; 176 mg/kg,42.50 U/L
same,"AST (Hepatic), Mean",[3]; 176 mg/kg,141.50 U/L
same,"Creatinine (Renal), Mean",[3]; 176 mg/kg,0.52 mg/dL
same,LTD,"[3]; single intravenous infusion (30 min), both genders",176 mg/kg
same,Intracellular integrity (intact concentration by RPHPLC vs platinum by AAS),4T1 cells [4],remains intact intracellularly
same,Tumor growth,"Lewis lung carcinoma; different dose regimens, compared with a MTD dose of oxaliplatin",significant tumor growth inhibition
same,CD8a levels (immuno-transcripts),"Lewis lung carcinoma; mouse, in vivo",no increase was seen in CD8a levels
same,Combination effect with PD1 immune checkpoint inhibitor,"Lewis lung carcinoma; mouse, in vivo",synergizes with PD1 immune checkpoint inhibitor
same,IGKC signal (immuno-transcripts),"Lewis lung carcinoma; mouse, in vivo",increase in IGKC signal
same,False discovery rate of CMTR2 as lead putative target,CMTR2 [5]; LC-MS/MS of proteins precipitated from 4T1 lysates,less than 1%
same,Binding to CMTR2 by proteomics,"CMTR2 [5]; anti-cholesterol IP and chemical pulldown, 4T1 cell lysate",binds to CMTR2
same,Estimated AUC versus dose,[6],increased linearly with dose
same,"mRNA expression of TLRs, IRF7 and IFN genes","4T1 cells [7]; 30 μM, 24 h, RT-q-PCR, n=3",robust increase in expression
same,Secreted (extracellular) INF-α levels,"4T1 cells [7]; iBlot, FIG. 19A-19B",remarkably high
same,Intracellular INF-α levels,"4T1 cells [7]; iBlot, FIGS. 18A-18B",significantly elevated
same,"Innate anti-viral response (relative mRNA expression INF-α, IRF7, TRIF, TLR3)","4T1 cells [7]; varying concentration, FIG. 16",activation of the innate anti-viral response in a dose-dependent manner
same,IRF7 levels,"4T1 cells [7]; varying concentrations, FIG. 17",increased levels in 4T1 cells in a dose-dependent manner
